Test results taken from ChEMBL document CHEMBL4334438, “Discovery of novel glycogen synthase kinase-3α inhibitors: Structure-based virtual screening, preliminary SAR and biological evaluation for treatment of acute myeloid leukemia” (Eur J Med Chem, 2019).

Legend:
[1] = target: Ribosomal protein S6 kinase alpha-3 (Homo sapiens) (UniProt P51812); test: Inhibition of recombinant human Rsk2 (2 to end residues) assessed as residual activity at 1 uM using KKKNRTLSVA as substrate measured after 40 mins in presence of [gamma33P]ATP by scintillation counting method relative to control
[2] = tested on: Dual specificity protein kinase TTK (Homo sapiens), P33981 [S389A]; test: Inhibition of recombinant full-length human TTK S389A mutant at 1 uM assessed as residual activity at 1 uM using MBP as substrate measured after 40 mins in presence of [gamma33P]ATP by scintillation counting method relative to control
[3] = tested on: Homeodomain-interacting protein kinase 2 (Homo sapiens), Q9H2X6 [UNDEFINED MUTATION]; test: Inhibition of human HIPK2 I471N mutant (165 to 564 residues) assessed as residual activity at 1 uM using myelin basic protein as substrate after 40 mins by [gamma-33ATP] radiometric assay relative to control
[4] = target: Ephrin type-B receptor 3 (Homo sapiens) (UniProt P54753); test: Inhibition of recombinant human EphB3 (599 to 920 residues) assessed as residual activity at 1 uM using poly(Glu, Tyr) 4:1 as substrate at 40 mins in presence of [gamma-33ATP] by scintillation counting based radiometry assay relative to control
[5] = target: Eukaryotic translation initiation factor 2-alpha kinase 3 (Homo sapiens) (UniProt Q9NZJ5); test: Inhibition of human PEK (536 to end residues) assessed as residual activity at 1 uM using RSRSRSRSRSRSRSR as substrate measured after 40 mins in presence of [gamma33P]ATP by scintillation counting method relative to control
[6] = target: Ephrin type-A receptor 4 (Homo sapiens) (UniProt P54764); test: Inhibition of recombinant human EphA4 (601 to 892 residues) assessed as residual activity at 1 uM using poly(Glu, Tyr) 4:1 as substrate at 40 mins in presence of [gamma-33ATP] by scintillation counting based radiometry assay relative to control
[7] = tested on: Serine/threonine-protein kinase Sgk2 (Homo sapiens), Q9HBY8 [S416D]; test: Inhibition of recombinant human SGK2 S416D mutant (54 to end residues) assessed as residual activity at 1 uM using GRPRTSSFAEGKK as substrate measured after 40 mins in presence of [gamma33P]ATP by scintillation counting method relative to control
[8] = tested on: Hepatocyte growth factor receptor (Homo sapiens), P08581 [Y1230H]; test: Inhibition of recombinant human MET A1209G/V1290L/Y1248H mutant (974 to end residues) assessed as residual activity at 1 uM using KKKGQEEEYVFIE as substrate incubated for 40 mins in presence of [gamma-33ATP by scintillation counting based radiometry assay relative to control
[9] = target: Casein kinase I isoform gamma-2 (Homo sapiens) (UniProt P78368); test: Inhibition of recombinant human CK1gamma2 (18 to end residues) assessed as residual activity at 1 uM using KRRRALS(p)VASLPGL as substrate incubated for 40 mins in presence of [gamma-33ATP] by scintillation counting based radiometry assay relative to control
[10] = target: Mitogen-activated protein kinase 1 (Homo sapiens) (UniProt P28482); test: Inhibition of recombinant full length human MAPK1 assessed as residual activity at 1 uM using myelin basic protein as substrate incubated for 40 mins in presence of [gamma-33P]ATP by scintillation counting based radiometry assay relative to control
[11] = target: Serine/threonine-protein kinase PRP4 homolog (Homo sapiens) (UniProt Q13523); test: Inhibition of recombinant human PRP4 (663 to end residues) assessed as residual activity at 1 uM using casein as substrate measured after 40 mins in presence of [gamma33P]ATP by scintillation counting method relative to control
[12] = target: Cyclin-dependent kinase 13/Cyclin-K (Homo sapiens) (UniProt Q14004+O75909); test: Inhibition of recombinant full length human CDK13/cyclinK assessed as residual activity at 1 uM using RSRSRSRSRSRSRSR as substrate incubated for 120 mins in presence of [gamma-33ATP] by scintillation counting based radiometry assay relative to control; assay type: protein-complex assay
[13] = target: Cyclin-dependent kinase-like 2 (Homo sapiens) (UniProt Q92772); test: Inhibition of recombinant full length human CDKL2 assessed as residual activity at 1 uM in presence of [gamma-33ATP] by scintillation counting based radiometry assay relative to control
[14] = target: Focal adhesion kinase 1 (Homo sapiens) (UniProt Q05397); test: Inhibition of recombinant human FAK (411 to 686 residues) assessed as residual activity at 1 uM using EEEEYEEEEEEYYIIEEEEEEYEEEEEEYYEEEEEEKKKK as substrate at 40 mins in presence of [gamma-33ATP] by scintillation counting based radiometry assay relative to control
[15] = target: Serine/threonine-protein kinase TAO1 (Homo sapiens) (UniProt Q7L7X3); test: Inhibition of human TAO1 (1 to 327 residues) assessed as residual activity at 1 uM using myelin basic protein as substrate measured after 40 mins in presence of [gamma33P]ATP by scintillation counting method relative to control
[16] = target: Calcium/calmodulin-dependent protein kinase type 1B (Homo sapiens) (UniProt Q6P2M8); test: Inhibition of recombinant full length human CaMKIbeta assessed as residual activity at 1 uM using KKLRRTLSFAEP as substrate incubated for 40 mins in presence of [gamma-33ATP] by scintillation counting based radiometry assay relative to control
Homo sapiens = species: Homo sapiens; test: Inhibition of recombinant full length human PRAK R291E mutant assessed as residual activity at 1 uM using KKLRRTLSVA as substrate measured after 40 mins in presence of [gamma33P]ATP by scintillation counting method relative to control
[17] = target: Calcium/calmodulin-dependent protein kinase type II subunit delta (Homo sapiens) (UniProt Q13557); test: Inhibition of recombinant full length human CaMK2delta assessed as residual activity at 1 uM […] incubated for 40 mins in presence of [gamma-33ATP] by scintillation counting based radiometry assay relative to control
[18] = tested on: Epidermal growth factor receptor (Homo sapiens), P00533 [L858R]; test: Inhibition of recombinant human EGFR L858R mutant (696 to end residues) assessed as residual activity at 1 uM using poly(Glu, Tyr) 4:1 as substrate at 40 mins in presence of [gamma-33ATP] by scintillation counting based radiometry assay relative to control
[19] = target: Maternal embryonic leucine zipper kinase (Homo sapiens) (UniProt Q14680); test: Inhibition of recombinant human MELK (1 to 340 residues) assessed as residual activity at 1 uM using KKLNRTLSFAEPG as substrate incubated for 40 mins in presence of [gamma-33ATP by scintillation counting based radiometry assay relative to control
[20] = target: MAP/microtubule affinity-regulating kinase 4 (Homo sapiens) (UniProt Q96L34); test: Inhibition of recombinant full length human MARK4 assessed as residual activity at 1 uM using KKKVSRSGLYRSPSMPENLNRPR as substrate incubated for 40 mins in presence of [gamma-33ATP by scintillation counting based radiometry assay relative to control

Chain of Cyclin-dependent kinase 13/Cyclin-K (Homo sapiens) (O75909 whole entry, looked up): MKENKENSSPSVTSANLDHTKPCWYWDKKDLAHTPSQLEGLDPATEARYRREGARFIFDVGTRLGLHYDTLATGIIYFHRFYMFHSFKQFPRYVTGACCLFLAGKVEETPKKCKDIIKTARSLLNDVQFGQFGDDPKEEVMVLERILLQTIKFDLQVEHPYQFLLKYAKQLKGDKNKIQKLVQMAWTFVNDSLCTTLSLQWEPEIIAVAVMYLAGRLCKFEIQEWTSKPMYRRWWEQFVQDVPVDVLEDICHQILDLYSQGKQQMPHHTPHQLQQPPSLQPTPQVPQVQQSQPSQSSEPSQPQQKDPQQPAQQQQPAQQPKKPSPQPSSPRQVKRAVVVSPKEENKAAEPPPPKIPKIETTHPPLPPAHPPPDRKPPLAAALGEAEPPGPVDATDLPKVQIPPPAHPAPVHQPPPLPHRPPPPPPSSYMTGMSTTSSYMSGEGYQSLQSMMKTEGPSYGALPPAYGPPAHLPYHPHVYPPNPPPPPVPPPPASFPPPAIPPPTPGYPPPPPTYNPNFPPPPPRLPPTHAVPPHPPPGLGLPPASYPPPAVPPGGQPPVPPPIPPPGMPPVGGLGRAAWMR
Chain of Cyclin-dependent kinase 13/Cyclin-K (Homo sapiens) (Q14004 whole entry, looked up): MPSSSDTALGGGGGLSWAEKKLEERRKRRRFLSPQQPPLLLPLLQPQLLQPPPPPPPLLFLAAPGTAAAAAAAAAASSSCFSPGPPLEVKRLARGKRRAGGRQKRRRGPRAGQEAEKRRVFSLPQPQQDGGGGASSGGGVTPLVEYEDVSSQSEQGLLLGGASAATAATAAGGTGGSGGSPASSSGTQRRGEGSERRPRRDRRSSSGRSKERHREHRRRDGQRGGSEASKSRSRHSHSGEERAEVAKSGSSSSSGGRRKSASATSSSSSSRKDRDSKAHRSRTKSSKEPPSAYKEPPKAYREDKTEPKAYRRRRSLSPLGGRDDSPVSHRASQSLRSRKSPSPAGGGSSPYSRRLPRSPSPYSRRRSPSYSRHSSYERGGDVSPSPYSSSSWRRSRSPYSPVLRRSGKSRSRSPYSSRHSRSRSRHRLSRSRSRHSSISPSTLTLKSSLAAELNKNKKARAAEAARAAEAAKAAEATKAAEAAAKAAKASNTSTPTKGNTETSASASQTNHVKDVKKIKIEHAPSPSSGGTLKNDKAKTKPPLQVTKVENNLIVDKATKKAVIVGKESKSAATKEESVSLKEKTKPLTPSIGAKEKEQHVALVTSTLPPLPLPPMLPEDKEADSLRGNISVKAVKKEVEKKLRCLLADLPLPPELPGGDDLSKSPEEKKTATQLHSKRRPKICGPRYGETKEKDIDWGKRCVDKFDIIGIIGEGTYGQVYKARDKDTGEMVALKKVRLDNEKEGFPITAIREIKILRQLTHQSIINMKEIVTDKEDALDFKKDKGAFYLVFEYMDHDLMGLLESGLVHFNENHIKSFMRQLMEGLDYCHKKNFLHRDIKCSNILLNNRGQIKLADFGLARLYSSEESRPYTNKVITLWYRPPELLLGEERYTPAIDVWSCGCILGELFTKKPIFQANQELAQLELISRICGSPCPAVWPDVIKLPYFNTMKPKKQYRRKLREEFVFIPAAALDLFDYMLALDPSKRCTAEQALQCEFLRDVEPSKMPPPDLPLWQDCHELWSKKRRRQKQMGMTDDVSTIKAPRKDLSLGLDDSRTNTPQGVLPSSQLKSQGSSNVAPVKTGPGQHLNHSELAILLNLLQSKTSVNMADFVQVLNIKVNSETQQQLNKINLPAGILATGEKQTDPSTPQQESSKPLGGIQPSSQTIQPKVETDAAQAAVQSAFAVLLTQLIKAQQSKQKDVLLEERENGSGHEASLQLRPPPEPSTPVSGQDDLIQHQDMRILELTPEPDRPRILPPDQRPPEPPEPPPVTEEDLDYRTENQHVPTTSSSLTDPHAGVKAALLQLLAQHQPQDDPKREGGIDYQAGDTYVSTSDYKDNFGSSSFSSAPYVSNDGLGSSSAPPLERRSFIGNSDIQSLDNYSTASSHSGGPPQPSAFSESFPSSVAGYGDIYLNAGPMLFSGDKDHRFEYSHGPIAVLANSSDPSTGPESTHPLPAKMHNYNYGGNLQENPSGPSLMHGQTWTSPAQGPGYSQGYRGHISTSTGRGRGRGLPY
Chain of Ribosomal protein S6 kinase alpha-3 (Homo sapiens) (P51812 whole entry): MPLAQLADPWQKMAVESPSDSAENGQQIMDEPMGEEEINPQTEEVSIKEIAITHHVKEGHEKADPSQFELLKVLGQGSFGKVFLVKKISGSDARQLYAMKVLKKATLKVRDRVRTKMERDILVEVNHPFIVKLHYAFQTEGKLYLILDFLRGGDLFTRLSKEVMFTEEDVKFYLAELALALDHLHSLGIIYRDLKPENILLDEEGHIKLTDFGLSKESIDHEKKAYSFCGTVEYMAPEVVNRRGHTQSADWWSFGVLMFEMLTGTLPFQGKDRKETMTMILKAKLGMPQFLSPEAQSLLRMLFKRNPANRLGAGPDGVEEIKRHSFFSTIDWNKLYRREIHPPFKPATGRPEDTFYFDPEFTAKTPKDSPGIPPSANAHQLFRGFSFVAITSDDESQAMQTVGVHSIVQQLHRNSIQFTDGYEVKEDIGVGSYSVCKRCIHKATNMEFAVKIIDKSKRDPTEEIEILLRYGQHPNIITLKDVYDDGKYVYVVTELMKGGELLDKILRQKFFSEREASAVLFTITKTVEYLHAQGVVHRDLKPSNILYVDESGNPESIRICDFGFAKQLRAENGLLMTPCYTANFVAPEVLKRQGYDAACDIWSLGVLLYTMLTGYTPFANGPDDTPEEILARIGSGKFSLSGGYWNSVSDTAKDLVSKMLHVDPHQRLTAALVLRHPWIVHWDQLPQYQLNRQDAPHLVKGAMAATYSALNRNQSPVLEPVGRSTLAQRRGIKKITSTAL
Chain of Eukaryotic translation initiation factor 2-alpha kinase 3 (Homo sapiens) (Q9NZJ5 whole entry, the tested form may be a part): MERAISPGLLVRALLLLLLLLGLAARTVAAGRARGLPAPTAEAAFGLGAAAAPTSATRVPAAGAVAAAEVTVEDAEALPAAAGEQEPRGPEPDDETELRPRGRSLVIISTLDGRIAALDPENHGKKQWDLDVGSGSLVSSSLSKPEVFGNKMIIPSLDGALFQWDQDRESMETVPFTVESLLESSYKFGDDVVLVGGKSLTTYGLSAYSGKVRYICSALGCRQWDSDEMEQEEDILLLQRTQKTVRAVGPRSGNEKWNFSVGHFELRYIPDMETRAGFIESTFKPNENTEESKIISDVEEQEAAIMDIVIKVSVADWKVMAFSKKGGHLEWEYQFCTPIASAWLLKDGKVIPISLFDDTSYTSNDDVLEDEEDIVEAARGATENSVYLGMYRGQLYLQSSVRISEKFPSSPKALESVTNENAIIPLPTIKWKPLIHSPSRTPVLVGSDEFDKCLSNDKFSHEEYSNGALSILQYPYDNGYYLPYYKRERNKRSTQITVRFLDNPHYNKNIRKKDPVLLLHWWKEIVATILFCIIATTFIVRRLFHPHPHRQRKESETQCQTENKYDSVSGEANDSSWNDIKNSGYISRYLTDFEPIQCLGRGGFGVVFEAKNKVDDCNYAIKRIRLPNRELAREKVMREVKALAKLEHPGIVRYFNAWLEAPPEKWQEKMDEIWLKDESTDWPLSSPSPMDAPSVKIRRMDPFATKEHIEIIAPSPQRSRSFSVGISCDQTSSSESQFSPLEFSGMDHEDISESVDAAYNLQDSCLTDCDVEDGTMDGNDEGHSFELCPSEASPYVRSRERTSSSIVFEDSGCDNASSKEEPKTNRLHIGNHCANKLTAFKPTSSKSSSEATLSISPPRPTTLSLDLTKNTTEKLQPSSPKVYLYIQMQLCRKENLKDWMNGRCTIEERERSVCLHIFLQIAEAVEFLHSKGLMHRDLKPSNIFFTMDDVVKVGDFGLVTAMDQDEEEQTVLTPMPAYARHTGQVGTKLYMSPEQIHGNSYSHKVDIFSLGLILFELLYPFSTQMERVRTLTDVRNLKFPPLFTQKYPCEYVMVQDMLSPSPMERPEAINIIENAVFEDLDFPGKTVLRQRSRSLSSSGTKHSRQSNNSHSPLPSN
Chain of Ephrin type-A receptor 4 (Homo sapiens) (P54764 whole entry, the tested form may be a part): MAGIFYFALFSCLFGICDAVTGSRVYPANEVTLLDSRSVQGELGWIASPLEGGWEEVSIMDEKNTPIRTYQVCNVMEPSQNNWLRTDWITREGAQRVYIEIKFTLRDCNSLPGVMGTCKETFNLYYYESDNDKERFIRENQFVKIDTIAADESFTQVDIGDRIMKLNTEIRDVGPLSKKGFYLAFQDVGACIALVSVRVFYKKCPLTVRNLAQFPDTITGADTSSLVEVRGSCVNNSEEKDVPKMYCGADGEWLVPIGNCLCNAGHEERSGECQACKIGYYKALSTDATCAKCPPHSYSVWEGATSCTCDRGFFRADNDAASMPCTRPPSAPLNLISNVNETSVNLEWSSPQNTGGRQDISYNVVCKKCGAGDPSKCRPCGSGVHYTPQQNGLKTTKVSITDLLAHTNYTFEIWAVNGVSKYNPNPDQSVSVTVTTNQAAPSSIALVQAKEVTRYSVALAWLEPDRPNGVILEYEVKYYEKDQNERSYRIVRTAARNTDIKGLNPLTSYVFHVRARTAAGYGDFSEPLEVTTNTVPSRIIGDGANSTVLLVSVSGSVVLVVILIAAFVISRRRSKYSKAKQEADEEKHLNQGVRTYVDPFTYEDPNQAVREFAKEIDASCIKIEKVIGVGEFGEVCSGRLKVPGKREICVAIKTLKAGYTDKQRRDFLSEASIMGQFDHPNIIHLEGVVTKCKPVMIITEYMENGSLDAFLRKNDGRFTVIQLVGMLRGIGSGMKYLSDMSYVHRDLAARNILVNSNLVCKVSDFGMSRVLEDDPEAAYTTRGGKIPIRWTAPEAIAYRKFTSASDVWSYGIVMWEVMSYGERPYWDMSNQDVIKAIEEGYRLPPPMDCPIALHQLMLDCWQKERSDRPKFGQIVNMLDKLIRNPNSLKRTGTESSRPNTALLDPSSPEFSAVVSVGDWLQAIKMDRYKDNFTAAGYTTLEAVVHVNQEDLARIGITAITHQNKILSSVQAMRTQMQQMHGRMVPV

SMILES: N=C1NC(=O)/C(=C\c2ccc(-c3cccc([N+](=O)[O-])c3)o2)S1
- Activity [1]: 85%
- Activity [2]: 98%
- Activity [3]: 1%
- Activity [4]: 106%
- Activity [5]: 99%
- Activity [6]: 103%
- Activity [7]: 101%
- Activity [8]: 106%
- Activity [9]: 98%
- Activity [10]: 97%
- Activity [11]: 86%
- Activity [12]: 102%
- Activity [13]: 74%
- Activity [14]: 105%
- Activity [15]: 52%
- Activity [16]: 100%
- Activity (Homo sapiens): 71%
- Activity [17]: 92%
- Activity [18]: 76%
- Activity [19]: 89%
- Activity [20]: 92%

SMILES: C=CCOC(=O)c1cc(-c2ccc(/C=C3/NC(=S)NC3=O)o2)ccc1Cl
- Activity [1]: 112%
- Activity [2]: 92%
- Activity [3]: 5%
- Activity [4]: 104%
- Activity [5]: 95%
- Activity [6]: 98%
- Activity [7]: 108%
- Activity [8]: 116%
- Activity [9]: 94%
- Activity [10]: 106%
- Activity [11]: 92%
- Activity [12]: 96%
- Activity [13]: 68%
- Activity [14]: 105%
- Activity [15]: 82%
- Activity [16]: 78%
- Activity (Homo sapiens): 82%
- Activity [17]: 65%
- Activity [18]: 106%
- Activity [19]: 105%
- Activity [20]: 113%
